What all share (assay): biochemical
One experiment has as its target B*0701 (Homo sapiens, UniProt P01889).
The next experiment has as its target B*5401 (Homo sapiens, UniProt P01889, A329T/C349S/D138N/D201E/E176V/E187T/E204Q/E69G/I76V/K202T/L119W/R155S/R180L/S121T/S35A/S48A/V127L/V306I/V36M/Y140L).
Another experiment deals with HLA-A1 (A*0101) (Homo sapiens, UniProt P04439, A114D/A174V/A182V/D101N/D185E/E176A/E190D/L180R/Q94H/R68K/S129P/T187R/V100A/V91M/W191G). It is filed as binding.
Another experiment has as its target A*2601 (Homo sapiens, UniProt P04439, A114D/A173T/A270S/D101N/D185E/E277Q/E87N/F33Y/G231S/I121R/I218V/K168Q/L180W/L300P/L318F/P208A/P217A/Q86R/Q94H/R138Q/S129P/T187R/T323A/T345S/V100A/V358M). The class given is binding.
The target in the next experiment is A*2902 (Homo sapiens, UniProt P04439, A270S/D101N/D185E/E176V/E277Q/E87Q/F33T/G231S/H175R/I121M/I218V/I322F/K168Q/L300P/L318F/M331R/P208A/P217A/Q86L/T323A/T345S/V100A/V358M). It is filed as binding.
In a further experiment the target is A*3002 (Homo sapiens, UniProt P04439, D101N/D140H/D185E/E176R/F33S/G80R/H175R/K168Q/Q94H/R138E/R41S/V100E). It is filed as binding.
Where [1] appears, read: B*0701 (nM), Binding of peptides to B7-like supermotif alleles, Table 36.

The results in this text go back to patent publication US9340577B2, “HLA binding motifs and peptides and their uses” (priority 1992, dated 2016).

Where two headings read alike, the source gives them in different places. No end group written: not given here.

Take SPIETVPVKL [15.253]: the IC50 (usually the point on the concentration scale where inhibition reaches its midpoint) at B*0701 (B*0701 (nM), binding of B7-like supermotif 10-mer peptides to purified HLA-B*0701) was found to be 1960 nM.
Take VPVKLKPGM [15.074]: at B*0701 (setting [1]), the 50% inhibitory concentration (IC50) is 18000 nM.
At B*0701 (setting [1]), LPKREPLDV [15.177] displayed an IC50 of 8310 nM.
SPWLTPRCM [15.046] came in with an IC50 at B*0701 of 651 nM.
Regarding QPDKSESEL [15.092], the half-inhibitory concentration (IC50) at B*0701 (setting [1]) worked out at 9000 nM.
As for TPTLAARNA [16.018], on B*5401, the concentration for half-maximal inhibition (IC50) came to 5780 nM.
Still for that read-out and setting: the value for VPGAATPYA [16.175] was 5780 nM; that for TPPLVKLWV [15.090] was 4820 nM; that for NPYNTPVFAI [15.255] was 6600 nM.
For `CC[C@H](C)[C@H](NC(=O)[C@H](Cc1c[nH]cn1)NC(=O)[C@@H]1CCCN1C(=O)CN)C(=O)N[C@@H](CO)C(=O)N[C@@H](Cc1ccc(O)cc1)C(=O)N1CCC[C@H]1C(=O)N1CCC[C@H]1C(=O)N[C@@H](CC(C)C)C(=O)O` [15.156], the IC50 at B*0701 (setting [1]) was found to be 6.2 nM.
In turn, `CC(C)C[C@H](NC(=O)[C@H](CC(C)C)NC(=O)[C@H](CC(C)C)NC(=O)[C@@H]1CCCN1C(=O)[C@H](C)N)C(=O)N[C@@H](C)C(=O)N[C@@H](CCCNC(=N)N)C(=O)N[C@@H](C)C(=O)N[C@@H](C)C(=O)O` [16.032] gave an IC50 at B*5401 of 2.6 nM.
In the case of APTKALRRV [15.089], on B*0701, the half-inhibitory concentration (IC50) stood at 659 nM.
Regarding `CC[C@H](C)[C@H](NC(=O)[C@@H](NC(=O)[C@H](CC(C)C)NC(=O)[C@H](CC(C)C)NC(=O)CNC(=O)[C@@H](NC(=O)[C@H](CCCCN)NC(=O)[C@@H]1CCCN1C(=O)[C@@H](N)CCSC)[C@@H](C)O)[C@@H](C)CC)C(=O)O` [15.108], the IC50 at B*0701 (setting [1]) worked out at 2790 nM.
As to `CC[C@H](C)[C@H](N)C(=O)N[C@H](C(=O)N[C@@H](CCC(=O)O)C(=O)N[C@@H](CCCCN)C(=O)N[C@@H](CC(N)=O)C(=O)N[C@@H](CO)C(=O)NCC(=O)N[C@@H](CC(C)C)C(=O)N[C@@H](Cc1ccc(O)cc1)C(=O)O)[C@@H](C)O` [Peptide 1553.04], the IC50 against HLA-A1 (A*0101) was 58 nM; on A*2601, 513 nM; on A*2902 it was more than 20000 nM; against A*3002, 68 nM.
The corresponding values for LSDALEIPY [Peptide 1549.41] are 12 nM, 629 nM, 1600 nM and 8690 nM.
For LSDTRNDVGPY [Peptide 9012.0164] the same measures were 14 nM, 586 nM, 9860 nM and 152 nM.
For the molecule `CC(C)C[C@H](NC(=O)[C@@H]1CCCN1C(=O)[C@H](CS)NC(=O)[C@H](CO)NC(=O)[C@@H]1CCCN1C(=O)[C@@H](N)CO)C(=O)N[C@@H](CCC(=O)O)C(=O)N[C@@H](CCCNC(=N)N)C(=O)N[C@@H](Cc1ccccc1)C(=O)N[C@@H](C)C(=O)O` [16.202], on B*5401, half-maximal inhibition (IC50) was put at 2450 nM.
For the molecule ATDVSHRGLY [Peptide 1593.10], the IC50 at HLA-A1 (A*0101) amounted to 26 nM; against A*2601 it was 18 nM; against A*2902, 1620 nM; on A*3002, 15 nM.
Turning to ITSPPDSSY [Peptide 9012.0118], the half-maximal inhibitory concentration (IC50) against HLA-A1 (A*0101) is 1720 nM; at A*2601, 462 nM; at A*2902, 16500 nM; against A*3002, 8.8 nM.
FTSMPNPEGRY [Peptide 9012.0174]: the IC50 against HLA-A1 (A*0101) turned out to be 10 nM; at A*2601, 2.8 nM; against A*2902, 170 nM; at A*3002, 104 nM.
In the case of `CC[C@H](C)[C@H](N)C(=O)N1CCC[C@H]1C(=O)N[C@@H](CC(=O)O)C(=O)N[C@@H](CO)C(=O)N[C@H](C(=O)N[C@@H](CCC(N)=O)C(=O)N[C@@H](CC(=O)O)C(=O)N[C@@H](CO)C(=O)N[C@@H](CC(C)C)C(=O)O)[C@@H](C)CC` [15.174], the IC50 on B*0701 (setting [1]) was determined as 2460 nM.
On to ASDVTACPYNY [Peptide 9012.0176], for which the IC50 turned out to be 18 nM on HLA-A1 (A*0101), 5830 nM at A*2601, 2440 nM against A*2902 and 205 nM against A*3002.
At B*5401, IPYSPLSPKV [15.347] registered a half-maximal inhibitory concentration (IC50) of 723 nM.
For the molecule QVDYYGLYY [Peptide 1580.19], the half-maximal inhibitory concentration (IC50) at HLA-A1 (A*0101) worked out at 3.4 nM; at A*2601 it was 777 nM; at A*2902, 69 nM; on A*3002, 1150 nM.
Take KPCVKLTPL [15.070]: the concentration for half-maximal inhibition (IC50) on B*0701 (setting [1]) was found to be 13 nM.
As for TSDYYIVTY [Peptide 1549.48], the IC50 on HLA-A1 (A*0101) came to 11 nM; at A*2601, 4110 nM; against A*2902 it was 11900 nM; at A*3002, 2200 nM.
Regarding ITDNNNGTY [Peptide 9012.0120], the half-inhibitory concentration (IC50) at HLA-A1 (A*0101) came to 32 nM; at A*2601, 460 nM; against A*2902 it was 15600 nM; at A*3002, 21 nM.
The corresponding values for DSVSSTCRY [Peptide 86.0156] are 3060 nM, 12 nM, more than 20000 nM and 994 nM.
At B*5401, EPAADGVGA [16.020] returned an IC50 of 13000 nM.
As for WTSTDNKNY [Peptide 1580.31], the IC50 was 163 nM on HLA-A1 (A*0101), 4830 nM on A*2601, more than 20000 nM at A*2902 and 7310 nM against A*3002.
At B*0701 (setting [1]), `CC[C@H](C)[C@H](NC(=O)[C@@H](NC(=O)[C@H](Cc1ccccc1)NC(=O)[C@H](CC(N)=O)NC(=O)[C@@H](NC(=O)[C@@H](NC(=O)[C@H](CS)NC(=O)[C@@H]1CCCN1C(=O)[C@@H](N)Cc1ccc(O)cc1)[C@@H](C)O)C(C)C)[C@@H](C)O)C(=O)N[C@@H](Cc1ccccc1)C(=O)O` [15.225] returned a concentration for half-maximal inhibition (IC50) of 1520 nM.
With VTADLRIVY [Peptide 1549.50], the IC50 was 1520 nM on HLA-A1 (A*0101), 121 nM on A*2601, 228 nM against A*2902 and 50 nM on A*3002.
In the case of `CC(C)C[C@H](NC(=O)[C@H](CO)NC(=O)[C@H](CCCNC(=N)N)NC(=O)[C@H](CC(C)C)NC(=O)[C@H](CO)NC(=O)[C@H](C)NC(=O)[C@H](CC(C)C)NC(=O)[C@@H]1CCCN1C(=O)[C@@H](N)Cc1ccc(O)cc1)C(=O)O` [15.088], at B*0701 (setting [1]), the IC50 was 5.5 nM.
`CC[C@H](C)[C@H](N)C(=O)N[C@@H](CO)C(=O)N[C@@H](CCC(=O)O)C(=O)N[C@@H](Cc1ccc(O)cc1)C(=O)N[C@@H](CCCNC(=N)N)C(=O)N[C@@H](Cc1c[nH]cn1)C(=O)N[C@@H](Cc1ccc(O)cc1)C(=O)N[C@@H](CS)C(=O)N[C@@H](Cc1ccc(O)cc1)C(=O)O` [Peptide 1571.27]: the IC50 against HLA-A1 (A*0101) was 38 nM; against A*2601 it was more than 20000 nM; at A*2902 it was 264 nM; against A*3002, 62 nM.
With VQEKILDLY [Peptide 86.0149], the IC50 was 1440 nM at HLA-A1 (A*0101), 8180 nM on A*2601, 17000 nM at A*2902 and 193 nM against A*3002.
At B*0701, SPTPLLYRL [15.053] gave an IC50 of 2300 nM.
Regarding EVDYVGLYY [Peptide 1580.33], the IC50 against HLA-A1 (A*0101) was 3.6 nM; at A*2601, 161 nM; at A*2902, 4.5 nM; against A*3002, more than 20000 nM.
Consider CTSASNPSPQY [Peptide 9012.0170], for which the IC50 at HLA-A1 (A*0101) is 535 nM; on A*2601 it was 549 nM; at A*2902, more than 20000 nM; against A*3002 it was 484 nM.
On B*0701 (setting [1]), TPTLHEYML [15.096] yielded an IC50 of 51 nM.
In the case of `CC[C@H](C)[C@H](NC(=O)[C@H](CC(=O)O)NC(=O)[C@H](CCC(N)=O)NC(=O)[C@H](CC(C)C)NC(=O)[C@@H](NC(=O)[C@H](C)NC(=O)[C@H](CCCCN)NC(=O)[C@@H]1CCCN1C(=O)CN)[C@@H](C)O)C(=O)O` [15.102], the IC50 at B*0701 (setting [1]) was 13500 nM.
Turning to VTQGLPREY [Peptide 9012.0128], the IC50 at HLA-A1 (A*0101) amounted to 848 nM; against A*2601, 3890 nM; against A*2902, 1010 nM; on A*3002, 1.7 nM.
The molecule NPAEKLRHL [15.105] had an IC50 on B*0701 (setting [1]) of 509 nM.
As to QAEPDTSNY [Peptide 1549.03], the IC50 against HLA-A1 (A*0101) is 319 nM; against A*2601, more than 20000 nM; against A*2902, more than 20000 nM; against A*3002, 9930 nM.
Consider LQDKILDHY [Peptide 1580.27], for which the IC50 on HLA-A1 (A*0101) is 66 nM; against A*2601, 7410 nM; at A*2902 it was more than 20000 nM; against A*3002 it was 926 nM.
In turn, LPNLEEVAL [15.049] showed an IC50 on B*0701 (setting [1]) of 1500 nM.
Take VSDFRWYRY [Peptide 1549.43]: the IC50 amounted to 24 nM at HLA-A1 (A*0101), 3070 nM against A*2601, 241 nM against A*2902 and 99 nM at A*3002.
For VTEFRWYRY [Peptide 1549.42] the same measures were 26 nM, 3150 nM, 256 nM and 92 nM.
For VTDCPYNY [Peptide 9012.0106] the same measures were 79 nM, more than 20000 nM, 1450 nM and 1630 nM.
Regarding RTDPVTLDVLY [Peptide 9012.0168], the IC50 on HLA-A1 (A*0101) was 6.7 nM; on A*2601, 2520 nM; against A*2902, 1310 nM; at A*3002, 10 nM.
